Experimental data reported in ChEMBL document CHEMBL3751777, “Important Hydrogen Bond Networks in Indoleamine 2,3-Dioxygenase 1 (IDO1) Inhibitor Design Revealed by Crystal Structures of Imidazoleisoindole Derivatives with IDO1” (J Med Chem, 2016).

How the values were obtained:
[1] = biological target: T1, Indoleamine 2,3-dioxygenase 1 (Homo sapiens, UniProt P14902); assay: Inhibition of recombinant human IDO1 assessed as conversion of […] incubated for 1 hr by fluorescence analysis
[2] = biological target: T1, Indoleamine 2,3-dioxygenase 1; assay: Inhibition of IDO1 in IFNgamma-stimulated human HeLa cells incubated for 24 hrs; type: cell-based
[3] = Toxicity in dog administered as bid for 28 days; type: organism-based, Canis lupus familiaris; settings: in vivo
Mus musculus [4] = assay: Reduction of kynurenine in LPS-stimulated mouse plasma at 50 mg/kg, po by LC/MS/MS analysis; type: functional; design: scale not given: the % may be the effect or the level left
[5] = Toxicity in rat administered as bid for 28 days; type: organism-based; settings: in vivo
Mus musculus [6] = assay: Reduction of kynurenine in LPS-stimulated mouse tissue at 50 mg/kg, po by LC/MS/MS analysis; type: functional; design: scale not given: the % may be the effect or the level left

T1 sequence (P14902 whole entry): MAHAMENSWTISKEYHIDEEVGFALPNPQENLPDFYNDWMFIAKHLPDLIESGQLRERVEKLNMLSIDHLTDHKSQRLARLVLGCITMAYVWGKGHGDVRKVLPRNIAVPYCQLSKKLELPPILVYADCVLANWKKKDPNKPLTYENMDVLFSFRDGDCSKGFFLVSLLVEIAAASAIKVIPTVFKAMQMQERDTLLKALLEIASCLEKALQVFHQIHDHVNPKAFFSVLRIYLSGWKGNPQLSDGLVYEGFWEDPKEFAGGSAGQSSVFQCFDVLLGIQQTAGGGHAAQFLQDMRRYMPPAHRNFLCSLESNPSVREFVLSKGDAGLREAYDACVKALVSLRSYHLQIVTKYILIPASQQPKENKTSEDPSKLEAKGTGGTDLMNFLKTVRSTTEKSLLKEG

Row | SMILES | IC50 [1] [µM] | EC50 [2] [µM] | also measured
1 | OC(CC1c2ccccc2-c2cnnn21)C1CCCCC1 (stereo not drawn) | > 10 | > 10 | 
2 | OC(Cn1c2ccccc2c2ccncc21)C1CCCCC1 (stereo not drawn) | > 10 |  | 
3 | Cc1ncc2n1C(CC(O)C1CCCCC1)c1ccccc1-2 (stereo not drawn) | > 10 | > 10 | 
4 | OC(Cn1c2ccccc2c2cccnc21)C1CCCCC1 (stereo not drawn) | > 10 |  | 
5 | OC(CC1Nc2ccccc2-c2cncn21)C1CCCCC1 (stereo not drawn) | 1.14 | > 10 | 
6 | O=C(Cn1c2ccccc2c2cccnc21)C1CCCCC1 | > 10 |  | 
7 | OC(CC1c2ccccc2-c2cncn21)C1CCCCC1 (mixture of isomers) |  |  | NOAEL at 672 h [3]: 80 mg/kg/day; Activity (Mus musculus [4]): 50%; NOAEL at 672 h [5]: 80 mg/kg/day; Activity (Mus musculus [6]): 50%
